Measurements: US20120322863A1, “PREVENTION OF AND COUNTERMEASURES AGAINST MITOCHONDRIAL DISEASE” (priority 2004, published 2012)

Tested on: patient with mitochondrial disease
Assay: Clinical Example 2: administration to a patient with mitochondrial disease
Assay type: in vivo, human
Conditions: agent dose in terms of L-arginine 0.5 g/kg/hr
Protocol: The agent for treating mitochondrial disease of the present invention was administered to a patient with mitochondrial disease at a dose in terms of L-arginine of 0.5 g/kg/hr.

Q: For `N=C(N)NCCC[C@H](N)C(=O)O` [L-arginine alone, L-arginine], which “effects on the symptoms of the mitochondrial disease” value is on record?
A: The value was “did not sufficiently exhibit”.

Q: And the vomiting?
A: The vomiting was “repetitive vomiting”.
